From the supplement of paper PMC10307832

Experiments:
Assay in all cases: relative viability (nuclei count vs DMSO), 5 days (fraction); higher = more cells survive
Crizotinib + Luminespib = compound: C[C@@H](Oc1cc(-c2cnn(C3CCNCC3)c2)cnc1N)c1c(Cl)ccc(F)c1Cl [Crizotinib] + CCNC(=O)c1noc(-c2cc(C(C)C)c(O)cc2O)c1-c1ccc(CN2CCOCC2)cc1 [Luminespib] (partner 0.01 µM)
Summary of the method: (§1)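 Relative viability divides the nuclei count in treated wells by that in vehicle wells. Lung cancer cell lines were seeded in 1536-well plates, dosed by pin tool the next day, and fixed and stained after 5 days in one step with final 0.05% Triton X-100, 1% formaldehyde and 1 ug/ml Hoechst. Dosing was a single drug or a fixed anchor-drug dose plus five library-drug doses (not always all listed) in √10 steps, and values are medians of duplicate plates imaged at 4×.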

Crizotinib + Pictilisib = compound: C[C@@H](Oc1cc(-c2cnn(C3CCNCC3)c2)cnc1N)c1c(Cl)ccc(F)c1Cl [Crizotinib] + CS(=O)(=O)N1CCN(Cc2cc3nc(-c4cccc5[nH]ncc45)nc(N4CCOCC4)c3s2)CC1 [Pictilisib] (partner 1 µM)
Summary of the method: as §1

Crizotinib + Alpelisib = compound: C[C@@H](Oc1cc(-c2cnn(C3CCNCC3)c2)cnc1N)c1c(Cl)ccc(F)c1Cl [Crizotinib] + Cc1nc(NC(=O)N2CCC[C@H]2C(N)=O)sc1-c1ccnc(C(C)(C)C(F)(F)F)c1 [Alpelisib] (partner 2 µM)
Summary of the method: as §1

Olaparib + Linsitinib = compound: O=C(c1cc(Cc2n[nH]c(=O)c3ccccc23)ccc1F)N1CCN(C(=O)C2CC2)CC1 [Olaparib] + C[C@]1(O)C[C@@H](c2nc(-c3ccc4ccc(-c5ccccc5)nc4c3)c3c(N)nccn32)C1 [Linsitinib] (partner 1 µM)
Summary of the method: as §1

Olaparib + Dasatinib = compound: O=C(c1cc(Cc2n[nH]c(=O)c3ccccc23)ccc1F)N1CCN(C(=O)C2CC2)CC1 [Olaparib] + Cc1nc(Nc2ncc(C(=O)Nc3c(C)cccc3Cl)s2)cc(N2CCN(CCO)CC2)n1 [Dasatinib] (partner 0.075 µM)
Summary of the method: as §1

## NCI-H1793
Crizotinib + Luminespib; first compound 0.03162 µM
  relative viability: 0.209
Crizotinib + Luminespib; first compound 0.1 µM
  relative viability: 0.178
Crizotinib + Luminespib; first compound 1 µM
  relative viability: 0.161
Crizotinib + Pictilisib; first compound 0.01 µM
  relative viability: 0.355
Crizotinib + Pictilisib; first compound 0.03162 µM
  relative viability: 0.385
Crizotinib + Pictilisib; first compound 0.1 µM
  relative viability: 0.339
Crizotinib + Pictilisib; first compound 1 µM
  relative viability: 0.364
Crizotinib + Alpelisib; first compound 0.01 µM
  relative viability: 0.703
Crizotinib + Alpelisib; first compound 0.03162 µM
  relative viability: 0.789
Crizotinib + Alpelisib; first compound 0.1 µM
  relative viability: 0.729
Crizotinib + Alpelisib; first compound 1 µM
  relative viability: 0.872
Olaparib + Linsitinib; first compound 0.08 µM
  relative viability: 0.862
Olaparib + Linsitinib; first compound 0.253 µM
  relative viability: 0.738
Olaparib + Linsitinib; first compound 2.53 µM
  relative viability: 0.942
Olaparib + Linsitinib; first compound 8 µM
  relative viability: 0.655
Olaparib + Dasatinib; first compound 0.08 µM
  relative viability: 0.377
Olaparib + Dasatinib; first compound 0.253 µM
  relative viability: 0.38
Olaparib + Dasatinib; first compound 2.53 µM
  relative viability: 0.353
Olaparib + Dasatinib; first compound 8 µM
  relative viability: 0.303
